The text below walks through data of PubChem BioAssay AID330 (DTP/NCI, 2004).

The test system of this assay is P388 leukemia ip, CD2F1 mice, survival T/C. Description: NCI In Vivo Anticancer Drug Screen. Data for tumor model P388 Leukemia (intraperitoneal) in CD2F1 (CDF1) mice. Particulars: endpoint: median survival time, higher = longer survival. An outline of the steps:
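Mice carrying the transplanted tumor received test compound or vehicle. Survival was recorded in each group, and the value is the treated-group measurement divided by that of the vehicle-treated control group.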

The mark [1] stands for this setting: dose: 50.0 mg/kg/injection, schedule: Q01DX009 (ip), vehicle: saline with Tween-80.
The mark [2] stands for this setting: dose: 100.0 mg/kg/injection, schedule: Q01DX009 (ip), vehicle: saline with Tween-80.
Setting [3] is: dose: 50.0 mg/kg/injection, schedule: Q01DX005 (ip), vehicle: saline with Tween-80.
Setting [4] is: dose: 100.0 mg/kg/injection, schedule: Q01DX005 (ip), vehicle: saline with Tween-80.
Where [5] appears, read: dose: 200.0 mg/kg/injection, schedule: Q01DX005 (ip), vehicle: saline with Tween-80.
Setting [6] is: dose: 50.0 mg/kg/injection, schedule: Q01DX009 (ip), vehicle: saline.

Each structure is given as a SMILES string. “And” between values parts separate entries of the source, which are not always exact repeats. Identical values can stand only once. Inconclusive results and toxic doses are left out.

With `CC1=NN(C(=O)c2ccc(Cl)cc2)C(=O)C1N=Nc1ccc(S(=O)(=O)Nc2nc(C)cc(C)n2)cc1` (stereo unspecified), the T/C is 92 % of control (dose: 100.0 mg/kg/injection, schedule: Q01DX001 (ip), vehicle: saline with Tween-80); 86 % of control (dose: 200.0 mg/kg/injection, schedule: Q01DX001 (ip), vehicle: saline with Tween-80); 89 % of control (dose: 400.0 mg/kg/injection, schedule: Q01DX001 (ip), vehicle: saline with Tween-80).
As for `Nc1nc(Cl)cc2nsnc12`, the T/C reads like this: (dose: 100.0 mg/kg/injection, schedule: Q04DX002 (ip), vehicle: saline) 97 % of control; (dose: 200.0 mg/kg/injection, schedule: Q04DX002 (ip), vehicle: saline) 99 % of control; (dose: 400.0 mg/kg/injection, schedule: Q04DX002 (ip), vehicle: saline) 95 % of control.
In the case of `O.O.O=S(=O)(O)C(F)(F)F.[NH2-].[NH2-].[NH2-].[NH2-].[Ru+3]`, the T/C reads like this: (dose: 12.5 mg/kg/injection, schedule: Q04DX003 (ip), vehicle: saline) 115 % of control; (dose: 25.0 mg/kg/injection, schedule: Q04DX003 (ip), vehicle: saline) 124 % of control; (dose: 100.0 mg/kg/injection, schedule: Q04DX003 (ip), vehicle: saline) 157 % of control.
`CCN(CC)CCOc1cccc2c1C(=O)c1c(O)cccc1C2=O`: the T/C is 103 % of control and 95 % of control (dose: 25.0 mg/kg/injection, schedule: Q01DX009 (ip), vehicle: saline with Tween-80); 105 % of control and 97 % of control under setting [1]; 158 % of control under setting [2].
On to `COC(=O)C1C(O)CCC2CN3CCc4c([nH]c5cc(OC)ccc45)C3CC21` (stereo unspecified), for which the T/C is 104 % of control (dose: 20.0 mg/kg/injection, schedule: Q01DX005 (ip), vehicle: DMSO); 111 % of control (dose: 40.0 mg/kg/injection, schedule: Q01DX005 (ip), vehicle: DMSO); 102 % of control (dose: 80.0 mg/kg/injection, schedule: Q01DX005 (ip), vehicle: DMSO); 100 % of control (dose: 160.0 mg/kg/injection, schedule: Q01DX005 (ip), vehicle: DMSO).
Take `CC(/C=N\N=C(N)N)=N/N=C(N)N`: the T/C (dose: 14.6 mg/kg/injection, schedule: Q01DX009 (ip), vehicle: saline) was 100 % of control and the T/C (dose: 22.0 mg/kg/injection, schedule: Q01DX009 (ip), vehicle: saline) is 120 % of control.
As to `COc1cc2c(c(OC)c1OC)-c1ccc(OC)c(=O)cc1C(N(C)C(=O)CO)CC2` (stereo unspecified), the T/C is, setting by setting: (dose: 0.16 mg/kg/injection, schedule: Q01DX009 (ip), vehicle: Klucel (hydroxypropylcellulose) (HPC)) 120 % of control and 123 % of control; (dose: 0.31 mg/kg/injection, schedule: Q01DX009 (ip), vehicle: Klucel (hydroxypropylcellulose) (HPC)) 155 % of control; (dose: 0.62 mg/kg/injection, schedule: Q01DX009 (ip), vehicle: Klucel (hydroxypropylcellulose) (HPC)) 166 % of control; (dose: 0.62 mg/kg/injection, schedule: Q01DX009 (ip), vehicle: saline) 189 % of control; (dose: 1.25 mg/kg/injection, schedule: Q01DX009 (ip), vehicle: Klucel (hydroxypropylcellulose) (HPC)) 112 % of control and 212 % of control.
For `N=C(N)c1ccc(N=Nc2c(O)ccc3c2[nH]c2ccccc23)cc1`, the T/C was 101 % of control under setting [3], 98 % of control under setting [4] and 106 % of control under setting [5].
Regarding `Clc1ncnc2n[nH]c(Br)c12`, the T/C was 108 % of control (dose: 100.0 mg/kg/injection, schedule: Q04DX002 (ip), vehicle: water); 116 % of control (dose: 200.0 mg/kg/injection, schedule: Q04DX002 (ip), vehicle: water); 107 % of control (dose: 400.0 mg/kg/injection, schedule: Q04DX002 (ip), vehicle: water).
Consider `CNC(=S)NNc1ccc(Cl)nn1`, for which the T/C (dose: 100.0 mg/kg/injection, schedule: Q01DX001 (ip), vehicle: saline) was 96 % of control; the T/C (dose: 200.0 mg/kg/injection, schedule: Q01DX001 (ip), vehicle: saline) was 96 % of control; the T/C (dose: 400.0 mg/kg/injection, schedule: Q01DX001 (ip), vehicle: saline) was 102 % of control.
On to `CCC(=O)Nc1n[nH]c(NC(=O)CC)n1`, for which the T/C (dose: 50.0 mg/kg/injection, schedule: Q01DX005 (ip), vehicle: Klucel (hydroxypropylcellulose) (HPC)) is 103 % of control; the T/C (dose: 100.0 mg/kg/injection, schedule: Q01DX005 (ip), vehicle: Klucel (hydroxypropylcellulose) (HPC)) is 100 % of control; the T/C (dose: 200.0 mg/kg/injection, schedule: Q01DX005 (ip), vehicle: Klucel (hydroxypropylcellulose) (HPC)) was 100 % of control.
With `CCOC(=O)[C@]1(Br)CC[C@]1(Br)C(=O)OCC`, the T/C is 106 % of control and 121 % of control under setting [1]; 112 % of control and 114 % of control under setting [2]; 117 % of control and 122 % of control (dose: 200.0 mg/kg/injection, schedule: Q01DX009 (ip), vehicle: saline with Tween-80); 123 % of control (dose: 400.0 mg/kg/injection, schedule: Q01DX009 (ip), vehicle: saline with Tween-80).
Turning to `c1ccc(-c2[nH]c3ccccc3c2-c2c(-c3ccccc3)[nH]c3ccccc23)cc1`, the T/C under setting [6] was 100 % of control; the T/C (dose: 100.0 mg/kg/injection, schedule: Q01DX009 (ip), vehicle: saline) is 96 % of control; the T/C (dose: 200.0 mg/kg/injection, schedule: Q01DX009 (ip), vehicle: saline) was 98 % of control.
For `COC[N+](C)(C)c1ccc(/C=C/C=O)cc1`, the T/C is 114 % of control (dose: 12.5 mg/kg/injection, schedule: Q01DX009 (ip), vehicle: saline); 109 % of control (dose: 25.0 mg/kg/injection, schedule: Q01DX009 (ip), vehicle: saline); 118 % of control and 98 % of control under setting [6].
As for `O=C(Nc1ccccc1Cl)Oc1ccc(C(=O)c2ccccc2)cc1`, the T/C reads like this: (dose: 15.0 mg/kg/injection, schedule: Q01DX005 (ip), vehicle: saline with Tween-80) 100 % of control; (dose: 30.0 mg/kg/injection, schedule: Q01DX005 (ip), vehicle: saline with Tween-80) 97 % of control; (dose: 60.0 mg/kg/injection, schedule: Q01DX005 (ip), vehicle: saline with Tween-80) 90 % of control.
In the case of `C=C(C)C(C(=O)OC(c1ccccc1)c1ccccc1)N1C(=O)C(NC(=O)COc2ccccc2)C1SSc1nc2ccccc2s1` (stereo unspecified), the T/C is, setting by setting: under setting [3], 94 % of control; under setting [4], 89 % of control; under setting [5], 93 % of control.
Regarding `CN(C)c1cccc(NC(=O)CC#N)c1`, the T/C runs as follows: under setting [3], 93 % of control; under setting [4], 93 % of control.
Take `CCCCCCC(=O)CC(SCCO)c1ccc(Cl)c(Cl)c1` (stereo unspecified): the T/C was 99 % of control (dose: 100.0 mg/kg/injection, schedule: Q04DX003 (ip), vehicle: suspension in saline); 104 % of control (dose: 200.0 mg/kg/injection, schedule: Q04DX003 (ip), vehicle: suspension in saline); 104 % of control (dose: 400.0 mg/kg/injection, schedule: Q04DX003 (ip), vehicle: suspension in saline).
Take `CSc1ccc(NC(=S)SCc2ccc3c(c2)OCO3)cc1Cl`: the T/C is, setting by setting: (dose: 50.0 mg/kg/injection, schedule: Q01DX009 (ip), vehicle: suspension in saline) 105 % of control; (dose: 100.0 mg/kg/injection, schedule: Q01DX009 (ip), vehicle: suspension in saline) 101 % of control; (dose: 200.0 mg/kg/injection, schedule: Q01DX009 (ip), vehicle: suspension in saline) 98 % of control.
As for `CS(=O)CC(=N\O)/C(CS(C)=O)=N\O` (stereo unspecified), the T/C (dose: 60.0 mg/kg/injection, schedule: Q01DX005 (ip), vehicle: saline) was 104 % of control; the T/C (dose: 120.0 mg/kg/injection, schedule: Q01DX005 (ip), vehicle: saline) was 108 % of control; the T/C (dose: 240.0 mg/kg/injection, schedule: Q01DX005 (ip), vehicle: saline) is 103 % of control.
With `C=C/C=C\CN(C)Cc1ccccc1`, the T/C (dose: 12.5 mg/kg/injection, schedule: Q01DX005 (ip), vehicle: saline) is 99 % of control; the T/C (dose: 25.0 mg/kg/injection, schedule: Q01DX005 (ip), vehicle: saline) was 105 % of control; the T/C (dose: 50.0 mg/kg/injection, schedule: Q01DX005 (ip), vehicle: saline) is 106 % of control and 108 % of control; the T/C (dose: 100.0 mg/kg/injection, schedule: Q01DX005 (ip), vehicle: saline) was 101 % of control.
